Measurements as given in the NIST ThermoML archive (doi:10.1016/j.jct.2011.08.015).

Conditions: for surface tension liquid-gas: Drop volume; for electrical conductivity / viscosity / speed of sound / mass density: 101.33 kPa, Liquid; for electrical conductivity: CRISON model GLP31; for viscosity: Capillary tube (Ostwald / Ubbelohde) method; for speed of sound: Sing-around technique in a fixed-path interferometer; for mass density: Vibrating tube method

CCC[n+]1ccccc1.F[B-](F)(F)F [1-propylpyridinium tetrafluoroborate]
Conditions	electrical conductivity [S/m]	mass density [kg/m3]	speed of sound [m/s]	surface tension liquid-gas [mN/m]	viscosity [mPa·s]
278.15 K	0.102	1267.63	1691.9	52.55	461.4
280.65 K	0.123	1265.78	1685.4	52.35	379.1
283.15 K	0.151	1263.92	1678.9	52.16	314.2
285.65 K	0.181	1262.06	1672.5	51.94	262.5
288.15 K	0.215	1260.19	1666.2	51.72	220.8
290.65 K	0.252	1258.42	1660	51.53	186.9
293.15 K	0.302	1256.64	1653.9	51.29	160
295.65 K	0.352	1254.86	1647.8	51.15	137.7
298.15 K	0.401	1253.08	1641.7	50.97	119.5
300.65 K	0.456	1251.3	1635.7	50.73	103.8
303.15 K	0.516	1249.52	1629.8	50.51	90.75
305.65 K	0.581	1247.73	1623.8	50.32	79.75
308.15 K	0.649	1245.95	1618	50.12	70.61
310.65 K	0.722	1244.18	1612.1	49.93	62.81
313.15 K	0.799	1242.4	1606.3	49.79	56.02
315.65 K	0.881	1240.63	1600.5	49.54	50.22
318.15 K	0.965	1238.86	1594.8	49.41	45.19
320.65 K	–	–	–	49.21	–
